# Experimental data: US20250064890A1, “PROTEIN COMPOSITIONS FOR THE TREATMENT OF INFLAMMATORY DISEASES” (Unichem Laboratories Limited, priority 2021, published 2025)
# Test system: oral (buccal) mucosa cells (TR146)
# Experiment: Sub(G0/G1) cell population (cell cycle) against 5-FU induced damage
# Type: cell-based, human
# Settings: for % Decrease in Apoptotic cells (with respect to control): Sub G0/G1
# Protocol: To determine the effect of test item on cell cycle, oral buccal mucosal cells (TR146) were incubated overnight in 5% CO2 incubator at 37° C. for 24 h. […] After 24 h of treatment, cells were exposed to chemotherapy (5-FU 10 mM) for 24 h or radiotherapy (Gamma radiation (3.5 kGy) using Cobalt 60) for 2 h.
# After incubation, cells were harvested by trypsinization and processed for Cell cycle assay. Accordingly, cells were harvested into prelabeled centrifuge tubes and centrifuged at 450 g for 5 min at room temperature (RT, low brake). The supernatants were removed carefully and discarded. 1 ml of 1× phosphate buffer saline (PBS) was added to the pellet and resuspended gently to make homogenous suspension. Cells were centrifuged at 450 g for 5 min, RT (low brake). The supernatant was carefully removed leaving behind approx. 100 μl of PBS. Cells were resuspended gently yet thoroughly in residual PBS. Ice-cold 70% ethanol (100 μl) was added drop-wise into cells in each tube while vortexing at low speed (fixation step). Cells stored at 4° C. for 24 h were centrifuged at 450 g for 5 min, RT (low brake). The supernatant was carefully removed without touching the pellet and discarded. 1 ml of 1×PBS was added into pellet and resuspended gently. Cells were incubated for 1 minute at RT. Cells were centrifuged at 450 g for 5 min, RT (low brake). The supernatant was removed carefully without touching the pellet, leaving behind approx. 20-50 μl of PBS. 200 μl of cell cycle reagent was added into each tube. Cells were resuspended gently and mixed. Cells were incubated for 30 min at RT in the dark. The stained samples were transferred into 96-well plates and acquired on flow cytometer (Guava technologies). Percentage of cells in Sub (G0/G1) phase were determined based on the concept that cell cycle reagent contains PI stain, which stains DNA of cells in different phases of cell cycle; Sub (G0/G1), G1, S, G2 and M. Cells in Sub (G0/G1) phase correspond to apoptotic cells. Percent inhibition in apoptotic cells is determined by the formula:
# =[(% Sub(G0/G1) cells in 5-FU/radiation alone)−(% Sub(G0/G1) cells in TI+5-FU/radiation)/% Sub(G0/G1) cells in 5-FU/radiation alone]*100
compound,measurement,setting,value
"NCCCNCCSP(=O)(O)O [Amifostine, reference compound]",% Apoptotic cells (Sub G0/G1),1 μg/ml + 5FU (10 mM),13%
same,% Decrease in Apoptotic cells (with respect to control),1 μg/ml + 5FU (10 mM),58%
same,% Apoptotic cells (Sub G0/G1),10 μg/ml + 5FU (10 mM),11.4%
same,% Decrease in Apoptotic cells (with respect to control),10 μg/ml + 5FU (10 mM),63.2%
same,% Apoptotic cells (Sub G0/G1),25 μg/ml + 5FU (10 mM),17%
same,% Decrease in Apoptotic cells (with respect to control),25 μg/ml + 5FU (10 mM),45%
same,% Apoptotic cells (Sub G0/G1),50 μg/ml + 5FU (10 mM),15.1%
same,% Decrease in Apoptotic cells (with respect to control),50 μg/ml + 5FU (10 mM),50.9%
